Measured values: patent US20190233906A1, “MUTANT STRAINS OF STAPHYLOCOCCUS AUREUS WITH MULTIPLE INACTIVATED TCS SYSTEMS” (priority 2015, published 2019)
Like-named read-outs stand apart in the source and are kept apart here. Marks after values point to notes of the source that are not given here.

Experiments:
Format in all cases: cell-based, Staphylococcus aureus
S. aureus MW2 = conditions: strain MW2
Description: (§1) Antibiotic sensitivity tests were performed at the University Clinic of Navarra. Antibiotics routinely used in clinic for treatment of S. aureus infections were tested by VITEK 2 system. • Growth Kinetics Analysis

S. aureus 8325 = test system: S. aureus 8325; as to Antimicrobial susceptibility (R/S): key: R: resistant; S: susceptible
Description: as §1

S. aureus 8325 ΔXV = assay: Antimicrobial susceptibility test (VITEK 2 system); conditions: for Susceptibility of 8325 ΔXV mutant compared with parental strain: 8325 ΔXV vs 8325; for Antimicrobial susceptibility (R/S) / MIC, Minimal inhibitory concentration: strain 8325 ΔXV; as to Antimicrobial susceptibility (R/S): key: R: resistant; S: susceptible
Description: as §1

S. aureus MW2 ΔXV = assay: Antimicrobial susceptibility test (VITEK 2 system); conditions: for Antimicrobial susceptibility (R/S) / MIC, Minimal inhibitory concentration: strain MW2 ΔXV; for Susceptibility of MW2 ΔXV mutant compared with parental strain: MW2 ΔXV vs MW2; as to Antimicrobial susceptibility (R/S): key: R: resistant; S: susceptible
Description: as §1
For Antimicrobial susceptibility (R/S) in this document: key: R: resistant; S: susceptible.

| Molecule | Antimicrobial susceptibility (R/S) (S. aureus MW2) | Antimicrobial susceptibility (R/S) (S. aureus 8325; strain 8325) | MIC, Minimal inhibitory concentration (S. aureus 8325; strain 8325) | Susceptibility of 8325 ΔXV mutant compared with parental strain (S. aureus 8325 ΔXV) | Antimicrobial susceptibility (R/S) (S. aureus 8325 ΔXV) | MIC, Minimal inhibitory concentration (S. aureus 8325 ΔXV) | Antimicrobial susceptibility (R/S) (S. aureus MW2 ΔXV) | MIC, Minimal inhibitory concentration (S. aureus MW2) | MIC, Minimal inhibitory concentration (S. aureus MW2 ΔXV) | Antimicrobial susceptibility (R/S) (S. aureus 8325) | Susceptibility of MW2 ΔXV mutant compared with parental strain (S. aureus MW2 ΔXV) |
| --- | --- | --- | --- | --- | --- | --- | --- | --- | --- | --- | --- |
| CN[C@H](CC(C)C)C(=O)N[C@H]1C(=O)N[C@@H](CC(N)=O)C(=O)N[C@H]2C(=O)N[C@H]3C(=O)N[C@H](C(=O)N[C@H](C(=O)O)c4cc(O)cc(O)c4-c4cc3ccc4O)[C@H](O)c3ccc(c(Cl)c3)Oc3cc2cc(c3O[C@@H]2O[C@H](CO)[C@@H](O)[C@H](O)[C@H]2O[C@H]2C[C@](C)(N)[C@H](O)[C@H](C)O2)Oc2ccc(cc2Cl)[C@H]1O [Vancomycin] | S | S | (1)^a | higher susceptibility | S | (≤0.5)^a | S | – | – | – | – |
| C[C@@H]1O[C@@H]1P(=O)(O)O [Fosfomycin] | S | S | (16)^a | higher susceptibility | S | (≤8)^a | S | – | – | – | – |
| C/C(=C\C(=O)OCCCCCCCCC(=O)O)C[C@@H]1OC[C@H](C[C@@H]2O[C@H]2[C@@H](C)[C@H](C)O)[C@@H](O)[C@H]1O [Mupirocin] | S | S | – | – | S | – | S | – | – | – | – |
| CC[C@H]1OC(=O)[C@H](C)[C@@H](O[C@H]2C[C@@](C)(OC)[C@@H](O)[C@H](C)O2)[C@H](C)[C@@H](O[C@@H]2O[C@H](C)C[C@H](N(C)C)[C@H]2O)[C@](C)(O)C[C@@H](C)CN(C)[C@H](C)[C@@H](O)[C@]1(C)O [Azithromycin] | S | S | – | – | S | – | S | – | – | – | – |
| CC[C@H]1OC(=O)[C@H](C)[C@@H](O[C@H]2C[C@@](C)(OC)[C@@H](O)[C@H](C)O2)[C@H](C)[C@@H](O[C@@H]2O[C@H](C)C[C@H](N(C)C)[C@H]2O)[C@](C)(O)C[C@@H](C)C(=O)[C@H](C)[C@@H](O)[C@]1(C)O [Erithromycin] | S | S | – | – | S | – | S | – | – | – | – |
| CC1(C)S[C@@H]2[C@H](NC(=O)[C@H](N)c3ccccc3)C(=O)N2[C@H]1C(=O)O [Ampicillin] | R | R | – | higher susceptibility | S | – | R | – | – | – | – |
| CCC[C@@H]1C[C@@H](C(=O)N[C@@H]([C@H]2O[C@H](SC)[C@H](O)[C@@H](O)[C@H]2O)[C@H](C)Cl)N(C)C1 [Clindamycin] | S | S | – | – | S | – | S | – | – | – | – |
| O=C(N[C@H](CO)[C@H](O)c1ccc([N+](=O)[O-])cc1)C(Cl)Cl [Chloramphenicol] | S | S | – | – | S | – | S | – | – | – | – |
| NC[C@H]1O[C@H](O[C@H]2[C@H](O)[C@@H](O[C@H]3O[C@H](CO)[C@@H](O)[C@H](N)[C@H]3O)[C@H](N)C[C@@H]2N)[C@H](N)C[C@@H]1O [Tobramycin] | S | S | – | – | S | – | S | – | – | – | – |
| Teicoplanin | S | S | – | – | S | – | S | – | – | – | – |
| C[C@H]1COc2c(N3CCN(C)CC3)c(F)cc3c(=O)c(C(=O)O)cn1c23 [Levofloxacin] | S | S | – | – | S | – | S | (≤0.25)^a | (≤0.12)^a | – | – |
| CC(=O)O[C@H]1C[C@@]2(C)[C@@H](C[C@@H](O)[C@H]3[C@@]4(C)CC[C@@H](O)[C@@H](C)[C@@H]4CC[C@@]32C)/C1=C(\CCC=C(C)C)C(=O)O [Fusidic acid] | S | S | – | – | S | – | S | – | – | – | – |
| Trimethoprim/Sulfamethoxazole | S | S | – | – | S | – | S | – | – | – | – |
| CC[C@H]1OC(=O)[C@H](C)[C@@H](O[C@H]2C[C@@](C)(OC)[C@@H](O)[C@H](C)O2)[C@H](C)[C@@H](O[C@@H]2O[C@H](C)C[C@H](N(C)C)[C@H]2O)[C@](C)(OC)C[C@@H](C)C(=O)[C@H](C)[C@@H](O)[C@]1(C)O [Clarithromycin] | S | S | – | – | S | – | S | – | – | – | – |
| O=C1CN(/N=C/c2ccc([N+](=O)[O-])o2)C(=O)N1 [Nitrofurantoin] | S | – | – | – | S | – | S | (32)^a | (≤16)^a | S | – |
| CO[C@@]1(NC(=O)Cc2cccs2)C(=O)N2C(C(=O)O)=C(COC(N)=O)CS[C@@H]21 [Cefoxitin] | R | S | – | – | S | – | S | – | – | – | more susceptible |
| CC(=O)NC[C@H]1CN(c2ccc(N3CCOCC3)c(F)c2)C(=O)O1 [Linezolid] | S | S | – | – | S | – | S | (2)^a | (1)^a | – | more susceptible |
